One data set has as its target T1, human mGlu2 receptor (Homo sapiens, UniProt Q14416).
T1 construct: expressed in transfected cells; host or cells: CHO cells
Put plainly: [35S]GTPγS binding assay (mGluR2 negative allosteric modulation, glutamate ~EC80 60 μM). Format: biochemical. The conditions noted are these: for Emax: read-out: GTPγS-hmGluR2 anGT Emax; for IC50: glutamate ~EC80 (60 μM), pIC50 = −log IC50 (M). The protocol: 1) [^35S]GTPγS Binding Assay
[^35S]GTPγS Binding Assay
Total reaction volume was 200 μl. […] Membrane-bound radioactivity was counted in a Topcount.
In general terms: GTPγS resists hydrolysis and so accumulates on activated G proteins.

Where [1] appears, read: maximal % inhibition relative to the control glutamate response (EC80 glutamate).
[2] abbreviates: membranes from CHO cells transfected with human mGlu2 receptor, read-out: GTPγS-hmGluR2 anGT pIC50 (converted).

Where two headings read alike, the source gives them in different places.

T1 sequence (Q14416 19-872): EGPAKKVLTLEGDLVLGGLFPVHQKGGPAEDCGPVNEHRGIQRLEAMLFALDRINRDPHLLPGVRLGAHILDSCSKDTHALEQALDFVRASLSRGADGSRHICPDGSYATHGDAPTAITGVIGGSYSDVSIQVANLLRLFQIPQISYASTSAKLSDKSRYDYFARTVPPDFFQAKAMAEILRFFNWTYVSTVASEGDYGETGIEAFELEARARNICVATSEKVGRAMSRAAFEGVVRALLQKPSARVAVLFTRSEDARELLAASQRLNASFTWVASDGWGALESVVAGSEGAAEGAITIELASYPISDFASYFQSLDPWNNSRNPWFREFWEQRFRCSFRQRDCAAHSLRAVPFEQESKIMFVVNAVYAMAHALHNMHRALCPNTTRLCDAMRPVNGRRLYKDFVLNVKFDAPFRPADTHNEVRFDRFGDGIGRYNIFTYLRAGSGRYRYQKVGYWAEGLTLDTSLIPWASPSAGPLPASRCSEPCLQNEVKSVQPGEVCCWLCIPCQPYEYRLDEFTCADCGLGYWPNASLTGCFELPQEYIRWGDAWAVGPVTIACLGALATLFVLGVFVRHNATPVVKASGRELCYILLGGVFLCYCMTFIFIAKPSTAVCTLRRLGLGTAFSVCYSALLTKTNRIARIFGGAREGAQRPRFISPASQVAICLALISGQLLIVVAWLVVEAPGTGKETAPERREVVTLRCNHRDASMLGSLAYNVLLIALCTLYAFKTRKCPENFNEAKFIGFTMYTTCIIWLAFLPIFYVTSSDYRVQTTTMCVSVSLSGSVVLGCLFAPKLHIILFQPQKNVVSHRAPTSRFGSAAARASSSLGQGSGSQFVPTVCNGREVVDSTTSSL

One may read the Emax as the size of the effect at its maximum, as opposed to the concentration needed. Usually melting point stands for the temperature, or range, at which the solid turns liquid. Regarding `C[C@H]1CN(c2ccc(C(F)(F)F)cc2)C(=O)c2c(NC(=O)c3cccc(O)c3)cnn21` [Co. No. 144], the melting point amounted to 240.46 °C. Moreover, the Emax on human mGlu2 receptor (setting [1]) was determined as 115%. Further, at human mGlu2 receptor (setting [2]), the IC50 is 2.04e-09 M.

Regarding `C[C@H]1CN(c2ccc(C(F)(F)F)cc2)C(=O)c2c(NC(=O)c3ccncc3)cnn21` [Co. No. 55], the melting point stood at 145.26 °C. For the same molecule, the Emax on human mGlu2 receptor (setting [1]) worked out at 105%. The IC50 on human mGlu2 receptor (setting [2]) is 2e-08 M.

`C[C@H]1CN(c2ccc(OC(F)(F)F)c(Cl)c2)C(=O)c2c(NC(=O)c3cccnc3)cnn21` [Co. No. 195]: the melting point was 181.21 °C. In addition, the Emax at human mGlu2 receptor (setting [1]) stood at 105%. Besides, the IC50 at human mGlu2 receptor (setting [2]) was 1.58e-09 M.

`Cc1cc(C(=O)Nc2cnn3c2C(=O)N(c2ccc(C(F)(F)F)c(Cl)c2)C[C@@H]3C)cc(N)n1` [Co. No. 174]: the melting point came out at 192.47 °C. Besides, the Emax on human mGlu2 receptor (setting [1]) was 106%. The IC50 on human mGlu2 receptor (setting [2]) is 1.66e-09 M.

`C[C@H]1CN(c2ccc(C(F)(F)F)cc2)C(=O)c2c(NC(=O)c3cncc(F)n3)cnn21` [Co. No. 219, 6-fluoro-N-[(7S)-7-methyl-4-oxo-5-[4-(trifluoromethyl)phenyl]-6,7-dihydropyrazolo[1,5-a]pyrazin-3-yl]pyrazine-2-carboxamide] displayed a melting point of 183.54 °C. For the same molecule, on human mGlu2 receptor (setting [1]), the Emax worked out at 107%. For the same molecule, the IC50 at human mGlu2 receptor (setting [2]) was 3.31e-09 M.

With `C[C@H]1CN(c2ccc(C(F)(F)F)cc2)C(=O)c2c(NC(=O)c3cnn(C)c3)cnn21` [Co. No. 86], the melting point amounted to 167.59 °C. For the same molecule, the Emax on human mGlu2 receptor (setting [1]) amounted to 103%. Further, on human mGlu2 receptor (setting [2]), the IC50 was 1.91e-07 M.

Molecule `COc1ccc(C(=O)Nc2cnn3c2C(=O)N(c2ccc(C(F)(F)F)cc2)C[C@@H]3C)cn1` [Co. No. 42] registered a melting point of 127.02 °C. In addition, the Emax on human mGlu2 receptor (setting [1]) is 105%. Moreover, the IC50 on human mGlu2 receptor (setting [2]) was 1.1e-08 M.

`COc1nc(N2C[C@H](C)n3ncc(NC(=O)c4ccccc4)c3C2=O)ccc1Cl` [Co. No. 76, N-[(7S)-5-(5-Chloro-6-methoxy-2-pyridyl)-7-methyl-4-oxo-6,7-dihydropyrazolo[1,5-a]pyrazin-3-yl]benzamide] gave a melting point of 188.77 °C. Besides, the Emax on human mGlu2 receptor (setting [1]) came out at 106%. For the same molecule, the IC50 on human mGlu2 receptor (setting [2]) is 5.89e-08 M.

As to `COc1ccc(F)c(C(=O)Nc2cnn3c2C(=O)N(c2ccc(C(F)(F)F)cc2)C[C@@H]3C)c1` [Co. No. 37], the melting point is 185.41 °C. Also, the Emax on human mGlu2 receptor (setting [1]) is 116%. Also, on human mGlu2 receptor (setting [2]), the IC50 is 9.12e-09 M.

In the case of `C[C@H]1CN(c2ccc(C(F)(F)F)cc2)C(=O)c2c(NC(=O)c3c[nH]cn3)cnn21` [Co. No. 83], the melting point was 277.42 °C. Also, the Emax on human mGlu2 receptor (setting [1]) worked out at 101%. The IC50 at human mGlu2 receptor (setting [2]) was 1.12e-07 M.

In turn, `C[C@H]1CN(c2ccc(C(F)(F)F)cc2)C(=O)c2c(NC(=O)c3ccc(Cl)cn3)cnn21` [Co. No. 46] displayed a melting point of 237.65 °C. Also, the Emax on human mGlu2 receptor (setting [1]) was 104%. Moreover, the IC50 on human mGlu2 receptor (setting [2]) was 1.26e-08 M.

The molecule `COCc1cncc(C(=O)Nc2cnn3c2C(=O)N(c2ccc(C(F)(F)F)c(Cl)c2)C[C@@H]3C)c1` [Co. No. 139] had a melting point of 170.75 °C. For the same molecule, the maximal response (Emax) on human mGlu2 receptor (setting [1]) was found to be 108%. Also, the IC50 at human mGlu2 receptor (setting [2]) is 3.02e-09 M.

Turning to `COc1cc(F)ccc1C(=O)Nc1cnn2c1C(=O)N(c1ccc(C(F)(F)F)cc1)C[C@@H]2C` [Co. No. 58], the melting point was 240.77 °C. At human mGlu2 receptor (setting [1]), the Emax amounted to 101%. Further, the IC50 at human mGlu2 receptor (setting [2]) was 2.19e-08 M.

In turn, `COc1cccc(C(=O)Nc2cnn3c2C(=O)N(c2ccc(C(F)(F)F)cc2)C[C@@H]3C)c1F` [Co. No. 59] returned a melting point of 205.32 °C. Moreover, on human mGlu2 receptor (setting [1]), the Emax is 110%. Also, the IC50 on human mGlu2 receptor (setting [2]) was 2.24e-08 M.

In the case of `Cc1nc(C(=O)Nc2cnn3c2C(=O)N(c2ccc(C(F)(F)F)cc2)C[C@@H]3C)co1` [Co. No. 81], the melting point came out at 189.92 °C. The Emax on human mGlu2 receptor (setting [1]) stood at 103%. The IC50 on human mGlu2 receptor (setting [2]) was 1.02e-07 M.

For `C[C@H]1CN(c2ccc(C(F)(F)F)cc2)C(=O)c2c(NC(=O)c3cccc(S(=O)(=O)F)c3)cnn21` [Co. No. 217], the melting point was 161.88 °C. For the same molecule, the IC50 at human mGlu2 receptor (GTPγS-hmGluR2 anGT pIC50, membranes from CHO cells transfected with human mGlu2 receptor) is 1.07e-08 M. Moreover, on human mGlu2 receptor, the Emax was determined as 110%.

Take `C[C@H]1CN(c2ccc(C(F)(F)F)cc2)C(=O)c2c(NC(=O)c3ccc(F)cn3)cnn21` [Co. No. 48]: the melting point came out at 221.22 °C. Further, at human mGlu2 receptor (setting [1]), the Emax turned out to be 108%. The IC50 on human mGlu2 receptor (setting [2]) was 1.32e-08 M.

For `C[C@H]1CN(c2ccc(C(F)(F)F)cc2)C(=O)c2c(NC(=O)Cc3ccccc3)cnn21` [Co. No. 87], the melting point worked out at 135.05 °C. Further, the Emax at human mGlu2 receptor (setting [1]) amounted to 103%. Also, the IC50 at human mGlu2 receptor (setting [2]) is 2e-07 M.

On to `Cc1c(F)cncc1C(=O)Nc1cnn2c1C(=O)N(c1ccc(C(F)(F)F)c(Cl)c1)C[C@@H]2C` [Co. No. 135], for which the melting point is 97.9 °C. On human mGlu2 receptor (setting [1]), the Emax is 108%. Besides, the IC50 on human mGlu2 receptor (setting [2]) is 2.29e-09 M.

`C[C@H]1CN(c2ccc(C(F)(F)F)cc2)C(=O)c2c(NC(=O)c3c[nH]c(N)n3)cnn21` [Co. No. 94, 2-Amino-N-[(7S)-7-methyl-4-oxo-5-[4-(trifluoromethyl)phenyl]-6,7-dihydropyrazolo[1,5-a]pyrazin-3-yl]-1H-imidazole-4-carboxamide] gave a melting point of 272.72 °C. Further, the Emax at human mGlu2 receptor (setting [1]) amounted to 98%. Further, the IC50 on human mGlu2 receptor (setting [2]) is 4.57e-07 M.

As to `C[C@H]1CN(c2ccc(C(F)(F)F)cn2)C(=O)c2c(NC(=O)c3ccc(N)nc3)cnn21` [Co. No. 61], the melting point turned out to be 223.46 °C. Besides, the Emax on human mGlu2 receptor (setting [1]) came out at 103%. Besides, the IC50 at human mGlu2 receptor (setting [2]) is 2.45e-08 M.

With `Cc1cc(C(=O)Nc2cnn3c2C(=O)N(c2ccc(C(F)(F)F)c(Cl)c2)C[C@@H]3C)c(C)cn1` [Co. No. 158], the melting point worked out at 130.79 °C. Besides, the Emax on human mGlu2 receptor (setting [1]) was found to be 112%. In addition, the IC50 on human mGlu2 receptor (setting [2]) was 4.07e-09 M.

For the molecule `COc1ncccc1C(=O)Nc1cnn2c1C(=O)N(c1ccc(C(F)(F)F)cc1)C[C@@H]2C` [Co. No. 43], the melting point turned out to be 213.83 °C. Moreover, the Emax on human mGlu2 receptor (setting [1]) was determined as 114%. In addition, the IC50 on human mGlu2 receptor (setting [2]) is 1.12e-08 M.

The molecule `Cc1cc(N)ncc1C(=O)Nc1cnn2c1C(=O)N(c1ccc(C(F)(F)F)c(Cl)c1)C[C@@H]2C` [Co. No. 164] had a melting point of 233.32 °C. Besides, the Emax on human mGlu2 receptor (setting [1]) was found to be 108%. Besides, at human mGlu2 receptor (setting [2]), the IC50 is 1.35e-09 M.

Turning to `COc1cncc(C(=O)Nc2cnn3c2C(=O)N(c2ccc(Cl)cc2)C[C@@H]3C)c1` [Co. No. 137], the melting point is 153.4 °C. Moreover, the Emax at human mGlu2 receptor (setting [1]) turned out to be 106%. Further, the IC50 on human mGlu2 receptor (setting [2]) was 1.74e-08 M.

In the case of `O=C(Nc1cnn2c1C(=O)N(c1ccc(C(F)(F)F)cc1)CC2)c1cccnc1` [Co. No. 190], the melting point came to 162.12 °C. For the same molecule, at human mGlu2 receptor (setting [1]), the Emax worked out at 102%. Further, the IC50 on human mGlu2 receptor (setting [2]) was 1.07e-06 M.

The molecule `C[C@H]1CN(c2ccc(C(F)(F)F)cc2)C(=O)c2c(NC(=O)c3cn[nH]c3)cnn21` [Co. No. 79] yielded a melting point of 240.1 °C. Moreover, on human mGlu2 receptor (setting [1]), the Emax was 107%. Moreover, the IC50 on human mGlu2 receptor (setting [2]) was 8.51e-08 M.

On to `C[C@H]1CN(c2ccc(C(F)(F)F)cc2)C(=O)c2c(NC(=O)c3ncc[nH]3)cnn21` [Co. No. 80], for which the melting point is 275.03 °C. Moreover, at human mGlu2 receptor (setting [1]), the Emax is 111%. Besides, the IC50 at human mGlu2 receptor (setting [2]) was 1e-07 M.

Regarding `C[C@H]1CN(c2ccc(C(F)(F)F)cc2)C(=O)c2c(NC(=O)c3ccc(C(N)=O)cn3)cnn21` [Co. No. 82, N2-[(7S)-7-Methyl-4-oxo-5-[4-(trifluoromethyl)phenyl]-6,7-dihydropyrazolo[1,5-a]pyrazin-3-yl]pyridine-2,5-dicarboxamide], the melting point came to 278.58 °C. In addition, on human mGlu2 receptor (setting [1]), the Emax came to 104%. Besides, the IC50 at human mGlu2 receptor (setting [2]) is 1.12e-07 M.

The molecule `Cc1cc(N2C[C@H](C)n3ncc(NC(=O)c4ccccc4)c3C2=O)ccc1C(F)(F)F` [Co. No. 7] had a melting point of 154.53 °C. The Emax at human mGlu2 receptor (setting [1]) came to 108%. For the same molecule, on human mGlu2 receptor (setting [2]), the IC50 was 2.29e-09 M.

In turn, `Cc1ccc(C(=O)Nc2cnn3c2C(=O)N(c2ccc(C(F)(F)F)cc2)C[C@@H]3C)cn1` [Co. No. 54] showed a melting point of 175.17 °C. The Emax at human mGlu2 receptor (setting [1]) is 104%. Further, the IC50 at human mGlu2 receptor (setting [2]) is 1.78e-08 M.

In the case of `COc1nc(N2C[C@H](C)n3ncc(NC(=O)c4ccccc4)c3C2=O)ccc1C(F)(F)F` [Co. No. 70], the melting point was 201.06 °C. In addition, the Emax at human mGlu2 receptor (setting [1]) was 108%. Moreover, the IC50 at human mGlu2 receptor (setting [2]) is 3.8e-08 M.

These data come from patent US10519162B2, “6,7-dihydropyrazolo[1,5-α]pyrazin-4(5H)-one compounds and their use as negative allosteric modulators of mGluR2 receptors” (Janssen Pharmaceutica NV, priority 2014, dated 2019).
